Laboratory results taken from patent US20100273769A1, “COMPOSITION AND METHOD FOR THE TREATMENT OF PARKINSON'S DISEASE” (priority 2009, published 2010).
Like-named read-outs stand apart in the source and are kept apart here. Each block holds one compound with its values, some of them ahead of it.

Legend:
[1] = target: T1, wildtype human LRRK2 (Homo sapiens, UniProt Q5S007); assay: Adapta assay, inhibition of wildtype human LRRK2 kinase fragment with LRRKtide; format: biochemical
T1 construct: human LRRK2 protein fragment encompassing amino acids 1326 to 2527; GST; made in house
T1 sequence (Q5S007 1326-2527): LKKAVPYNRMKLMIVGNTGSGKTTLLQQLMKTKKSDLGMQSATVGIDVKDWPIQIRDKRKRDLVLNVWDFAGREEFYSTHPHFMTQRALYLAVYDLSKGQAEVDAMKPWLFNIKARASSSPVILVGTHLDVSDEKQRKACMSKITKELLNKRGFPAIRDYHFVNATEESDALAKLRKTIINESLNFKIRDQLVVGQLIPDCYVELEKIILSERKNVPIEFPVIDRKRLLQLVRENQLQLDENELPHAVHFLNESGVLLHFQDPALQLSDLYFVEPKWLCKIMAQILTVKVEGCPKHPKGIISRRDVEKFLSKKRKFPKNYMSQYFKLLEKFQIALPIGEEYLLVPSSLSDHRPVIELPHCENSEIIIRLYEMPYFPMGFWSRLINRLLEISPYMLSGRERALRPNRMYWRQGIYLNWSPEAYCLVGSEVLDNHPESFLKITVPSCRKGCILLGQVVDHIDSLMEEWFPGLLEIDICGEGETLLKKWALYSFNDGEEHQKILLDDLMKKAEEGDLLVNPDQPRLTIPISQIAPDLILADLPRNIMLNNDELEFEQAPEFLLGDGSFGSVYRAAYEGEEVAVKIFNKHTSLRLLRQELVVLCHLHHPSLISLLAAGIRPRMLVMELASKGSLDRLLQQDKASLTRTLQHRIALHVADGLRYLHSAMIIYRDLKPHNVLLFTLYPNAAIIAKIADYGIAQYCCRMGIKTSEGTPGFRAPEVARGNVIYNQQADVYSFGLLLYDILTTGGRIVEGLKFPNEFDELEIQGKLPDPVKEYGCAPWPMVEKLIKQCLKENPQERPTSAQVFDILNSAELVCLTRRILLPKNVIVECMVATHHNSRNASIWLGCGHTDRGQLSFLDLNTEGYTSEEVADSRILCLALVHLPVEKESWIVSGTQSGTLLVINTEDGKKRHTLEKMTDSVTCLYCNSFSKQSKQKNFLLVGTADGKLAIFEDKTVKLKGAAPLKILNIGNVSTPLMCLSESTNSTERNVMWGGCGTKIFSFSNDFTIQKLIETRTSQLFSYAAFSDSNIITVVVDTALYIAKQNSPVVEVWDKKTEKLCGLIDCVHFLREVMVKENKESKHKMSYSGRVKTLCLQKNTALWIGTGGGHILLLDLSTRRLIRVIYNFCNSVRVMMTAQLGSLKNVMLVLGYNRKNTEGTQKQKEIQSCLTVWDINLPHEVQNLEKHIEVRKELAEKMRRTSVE

[2] = target: ERK2 (Homo sapiens, UniProt P28482); assay: Kinase specificity, ERK2; format: biochemical; conditions: 100 μM ATP
Sequence of ERK2 (P28482 whole entry, species assumed): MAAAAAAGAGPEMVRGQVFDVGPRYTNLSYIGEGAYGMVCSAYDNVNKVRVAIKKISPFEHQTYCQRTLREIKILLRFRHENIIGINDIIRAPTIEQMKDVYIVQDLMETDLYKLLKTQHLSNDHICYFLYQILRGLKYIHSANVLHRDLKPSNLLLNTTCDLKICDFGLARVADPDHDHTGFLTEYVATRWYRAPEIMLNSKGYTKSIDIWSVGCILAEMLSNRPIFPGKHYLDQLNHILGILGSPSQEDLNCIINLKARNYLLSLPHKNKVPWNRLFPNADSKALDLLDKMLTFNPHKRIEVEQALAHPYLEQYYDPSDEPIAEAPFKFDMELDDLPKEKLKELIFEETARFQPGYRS

[3] = target: Cdk1 (Homo sapiens, UniProt P06493); assay: Kinase specificity, Cdk1; format: biochemical; conditions: 100 μM ATP
Sequence of Cdk1 (P06493 whole entry, species assumed): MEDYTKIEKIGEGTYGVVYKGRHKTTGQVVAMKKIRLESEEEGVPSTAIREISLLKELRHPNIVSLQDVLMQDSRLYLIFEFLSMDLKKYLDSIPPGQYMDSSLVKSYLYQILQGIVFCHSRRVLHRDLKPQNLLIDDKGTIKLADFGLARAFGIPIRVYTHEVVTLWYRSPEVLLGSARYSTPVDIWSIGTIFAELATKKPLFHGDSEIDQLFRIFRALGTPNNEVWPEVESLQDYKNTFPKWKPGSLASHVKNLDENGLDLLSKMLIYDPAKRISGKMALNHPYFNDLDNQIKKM
Sequence of Cdk1 (P14635 whole entry partner, species assumed): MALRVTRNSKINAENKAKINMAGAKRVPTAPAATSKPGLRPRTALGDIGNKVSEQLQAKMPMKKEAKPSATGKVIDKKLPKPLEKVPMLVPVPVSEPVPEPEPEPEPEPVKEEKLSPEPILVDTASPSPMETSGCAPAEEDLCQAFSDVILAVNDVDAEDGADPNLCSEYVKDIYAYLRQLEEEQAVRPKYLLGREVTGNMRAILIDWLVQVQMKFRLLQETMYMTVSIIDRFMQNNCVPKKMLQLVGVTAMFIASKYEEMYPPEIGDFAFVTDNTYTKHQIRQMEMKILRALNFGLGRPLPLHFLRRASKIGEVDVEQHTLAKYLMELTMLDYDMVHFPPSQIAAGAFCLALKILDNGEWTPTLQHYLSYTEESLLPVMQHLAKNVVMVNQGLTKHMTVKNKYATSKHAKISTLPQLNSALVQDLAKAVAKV

[4] = target: GSK3; assay: Kinase specificity, GSK3; format: biochemical; conditions: 100 μM ATP
[5] = target: PKC; assay: Kinase specificity, PKC; format: biochemical; conditions: 100 μM ATP
[6] = target: PKA; assay: Kinase specificity, PKA; format: biochemical; conditions: 100 μM ATP
[7] = target: LRRK2 (Homo sapiens, UniProt Q5S007); conditions: Covy and Giasson 2009; Anand et al. 2009; cited from earlier work
Sequence of LRRK2 (Q5S007 whole entry): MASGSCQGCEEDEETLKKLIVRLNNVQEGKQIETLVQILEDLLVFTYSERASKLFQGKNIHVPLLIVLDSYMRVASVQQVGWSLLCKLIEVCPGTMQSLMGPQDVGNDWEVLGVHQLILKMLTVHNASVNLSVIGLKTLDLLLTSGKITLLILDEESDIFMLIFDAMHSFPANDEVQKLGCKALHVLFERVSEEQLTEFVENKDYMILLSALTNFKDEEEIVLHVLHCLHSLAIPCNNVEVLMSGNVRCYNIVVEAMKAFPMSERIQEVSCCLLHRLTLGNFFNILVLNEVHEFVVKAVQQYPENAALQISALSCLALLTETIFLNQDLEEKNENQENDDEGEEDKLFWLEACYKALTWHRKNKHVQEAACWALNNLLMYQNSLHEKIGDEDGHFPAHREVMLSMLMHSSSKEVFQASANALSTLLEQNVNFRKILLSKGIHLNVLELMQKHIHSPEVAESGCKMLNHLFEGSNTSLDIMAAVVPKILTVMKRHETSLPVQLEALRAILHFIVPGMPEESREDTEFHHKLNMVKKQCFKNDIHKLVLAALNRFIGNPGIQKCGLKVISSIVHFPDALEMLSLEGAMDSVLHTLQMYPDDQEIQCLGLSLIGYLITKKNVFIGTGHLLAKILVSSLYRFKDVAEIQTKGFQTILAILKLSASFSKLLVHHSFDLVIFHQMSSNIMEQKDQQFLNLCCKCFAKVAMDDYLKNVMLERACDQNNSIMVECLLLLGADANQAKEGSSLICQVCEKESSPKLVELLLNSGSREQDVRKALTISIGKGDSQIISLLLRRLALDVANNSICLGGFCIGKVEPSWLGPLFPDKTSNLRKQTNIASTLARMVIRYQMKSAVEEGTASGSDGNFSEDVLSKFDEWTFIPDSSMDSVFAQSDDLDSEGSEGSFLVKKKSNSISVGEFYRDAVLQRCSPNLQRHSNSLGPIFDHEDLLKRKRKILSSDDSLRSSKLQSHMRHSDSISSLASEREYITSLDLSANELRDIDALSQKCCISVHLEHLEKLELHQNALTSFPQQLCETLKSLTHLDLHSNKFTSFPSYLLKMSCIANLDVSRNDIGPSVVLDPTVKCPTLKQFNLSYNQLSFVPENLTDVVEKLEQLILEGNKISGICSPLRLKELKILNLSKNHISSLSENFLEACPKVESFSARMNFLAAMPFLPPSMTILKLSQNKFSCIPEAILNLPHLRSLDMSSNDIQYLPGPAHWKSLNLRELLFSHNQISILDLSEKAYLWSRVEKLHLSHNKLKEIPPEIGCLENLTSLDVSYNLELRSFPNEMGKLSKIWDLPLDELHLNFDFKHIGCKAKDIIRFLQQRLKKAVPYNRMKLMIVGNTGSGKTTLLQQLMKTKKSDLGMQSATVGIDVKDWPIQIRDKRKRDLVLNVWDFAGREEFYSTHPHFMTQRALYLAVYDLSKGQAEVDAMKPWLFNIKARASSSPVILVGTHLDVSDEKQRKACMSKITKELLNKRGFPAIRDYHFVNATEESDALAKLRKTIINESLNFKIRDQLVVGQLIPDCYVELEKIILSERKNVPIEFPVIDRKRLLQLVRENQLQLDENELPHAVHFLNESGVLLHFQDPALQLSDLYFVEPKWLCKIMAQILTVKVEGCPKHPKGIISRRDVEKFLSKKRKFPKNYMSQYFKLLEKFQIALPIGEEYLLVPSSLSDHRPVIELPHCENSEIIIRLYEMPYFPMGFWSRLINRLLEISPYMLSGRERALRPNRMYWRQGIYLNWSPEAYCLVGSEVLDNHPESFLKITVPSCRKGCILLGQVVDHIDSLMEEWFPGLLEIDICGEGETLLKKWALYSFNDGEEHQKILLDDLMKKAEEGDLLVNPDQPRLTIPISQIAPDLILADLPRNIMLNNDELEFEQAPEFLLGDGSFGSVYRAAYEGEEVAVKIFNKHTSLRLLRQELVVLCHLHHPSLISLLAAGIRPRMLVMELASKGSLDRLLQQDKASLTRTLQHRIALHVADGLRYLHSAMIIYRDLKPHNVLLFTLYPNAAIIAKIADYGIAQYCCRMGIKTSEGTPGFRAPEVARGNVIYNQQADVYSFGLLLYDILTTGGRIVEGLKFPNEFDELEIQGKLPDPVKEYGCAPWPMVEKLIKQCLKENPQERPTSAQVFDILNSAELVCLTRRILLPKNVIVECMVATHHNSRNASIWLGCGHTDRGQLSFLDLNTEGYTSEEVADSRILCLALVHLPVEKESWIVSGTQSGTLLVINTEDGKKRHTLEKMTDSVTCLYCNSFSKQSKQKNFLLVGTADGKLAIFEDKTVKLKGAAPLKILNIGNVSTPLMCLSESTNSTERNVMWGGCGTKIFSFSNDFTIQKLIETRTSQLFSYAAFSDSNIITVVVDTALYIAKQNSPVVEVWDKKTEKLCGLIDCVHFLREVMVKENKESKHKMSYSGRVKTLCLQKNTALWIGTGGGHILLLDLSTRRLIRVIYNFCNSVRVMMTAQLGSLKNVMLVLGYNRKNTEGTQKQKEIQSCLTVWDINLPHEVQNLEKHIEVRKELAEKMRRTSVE

[8] = system: R1441C LRRK2 transgenic C. elegans; assay: Food-sensing (slowing) response in LRRK2 transgenic C. elegans; format: in vivo; conditions: 2 mM added to the assay, FIG. 5 inset
Procedure: Dopaminergic neurons in C. elegans are involved in food sensing behavior such that in the absence of food worms move more rapidly, as assessed by determining their bending frequency on an agar plate not supplied with food. In an established assay the animals are then exposed to food, and the difference in motility is recorded in the form of bending frequency [Sawin et al., Neuron 26, 619-631 (2000)]. […] In approximate synchrony with the dopaminergic neurodegeneration this slowing response is essentially eliminated after 4 days. […] The slowing response can be reconstituted to a substantial degree by supplementation with dopamine, confirming that the phenotype is due to loss of dopaminergic input (FIG. 5).
The clear-cut functional phenotype of this model can be used to determine the efficacy of LRRK2 kinase inhibitors and the accurate determination of their potency in a biological context. […] The potency is expressed as the half-maximal restoration of the slowing response. […]
The functional consequence of dopaminergic neurodegeneration was assayed using the food-sensing response resulting in a slowing of motility after food exposure as assessed by the frequency of body bending within 20 second intervals in groups of 10 animals [Sawin et al., Neuron 26, 619-631 (2000)]. […]

[9] = Lethal plasma concentration after single dosing; format: in vivo; conditions: read-out: LC50 as plasma concentration

SMILES: CNC(=O)[C@@]1(N)CC2OC1(C)n1c3ccccc3c3c4c(c5c6cc(Br)ccc6n2c5c31)C(=O)NC4 (stereo partly drawn) [Compound 14]
IC50 ([1]; 100 μM ATP, read-out: LRRK2): 1.2 nM

SMILES: CNC(=O)C1(N)CC2OC1(C)n1c3ccc(Br)cc3c3c4c(c5c6cc(Br)ccc6n2c5c31)C(=O)NC4 (stereo not drawn) [Compound 15]
IC50 ([1]; 100 μM ATP, read-out: LRRK2): 1.5 nM

SMILES: COC(=O)[C@@]1(O)C[C@H]2O[C@]1(C)n1c3ccccc3c3c4c(c5c6ccccc6n2c5c31)C(=O)NC4 [Compound K252a, K252a, reference compound]
IC50 [1]: 220 nM
Potency for LRRK2 inhibition lower than that of compound 5 ([1]; direct comparison): more than 2 orders of magnitude
IC50 [2]: 120 nM
IC50 [3]: 310 nM
IC50 [4]: > 10 µM
IC50 [5]: 5 µM
IC50 [6]: 3.4 µM
Activity as inhibitor of LRRK2 [7]: active as inhibitors of LRRK2

SMILES: Cl.NCCc1ccc(O)c(O)c1 [dopamine hydrochloride, reference compound]
Loss of the food-sensing response in impaired LRRK2 worms [8]: partially rescued

SMILES: CN[C@@H]1C[C@H]2O[C@@](C)([C@@H]1OC)n1c3ccccc3c3c4c(c5c6ccccc6n2c5c31)C(=O)NC4 [staurosporine]
LC50 [9]: 200 to 300 nM
Activity as inhibitor of LRRK2 [7]: active as inhibitors of LRRK2

Continued, values first:

IC50 ([1]; 100 μM ATP, read-out: LRRK2): 1 nM
IC50 ([1]; 100 microM ATP, read-out: LRRK2 inhibitory potency (essentially receptor-limited)): ≤ 1 nM
IC50 [2]: 350 nM
IC50 [3]: 260 nM
SMILES: COC(=O)[C@@]1(N)CC2OC1(C)n1c3ccccc3c3c4c(c5c6ccccc6n2c5c31)C(=O)NC4 (stereo partly drawn) [Compound 5]

IC50 ([1]; 100 μM ATP, read-out: LRRK2): 1 nM
SMILES: CC12OC(C[C@]1(N)CO)n1c3ccccc3c3c4c(c5c6ccccc6n2c5c31)CNC4=O (stereo partly drawn) [Compound 13]
